Test system: subjects with mIDH1 advanced AML
Assay: Phase I study: safety and tolerability (TEAE, DLT, MTD, ECG)
Type: in vivo
Description: This study was an open-label, nonrandomized, multicenter phase I trial. Subjects were screened at 13 hospital sites in 2 countries (USA and Germany). The study was to consist of dose-escalation followed by dose-expansion. The MTD identified in dose-escalation was to be used in the dose-expansion. If MTD was not reached in dose-escalation, a dose for the expansion would be selected based on available PK, pharmacodynamic, safety, and efficacy data. BAY1436032 was administered twice-daily (BID) in continuous 28-day cycles. In dose-escalation, up to 9 evaluable subjects could be enrolled per cohort, with a minimum of 3 dose-limiting toxicity (DLT)-free evaluable subjects required prior to escalating to the next highest dose. Bayesian dose-DLT modeling was performed to help guide dosing decisions.
DLTs were differentially defined for nonhematopoietic versus hematopoietic toxicities. Nonhematopoietic toxicities of ≥grade 3 occurring during the first cycle of treatment were to be considered DLTs with the following exceptions: (1) Alopecia and nausea controlled by medical management; (2) Tumor lysis syndrome if successfully managed clinically and resolved within 7 days without any end-organ damage; (3) Differentiation syndrome (DS) if successfully managed clinically and resolved within 7 days without any end-organ damage; (4) Asymptomatic ≥grade 3 electrolyte abnormalities not considered clinically significant by the investigator. […] For certain toxicities such as laboratory assessments without a clear clinical correlate, a discussion between the investigator and the sponsor determined whether the adverse event (AE) should be assessed as a DLT.
DLTs identified during the first cycle of treatment were used to guide dose-escalation decisions and to determine the MTD, and if safety issues appeared in subsequent cycles they were also to be considered. Hydroxyurea was permitted during the first cycle if white blood cell (WBC) exceeded 20 × 10^9/L and was also permitted for treatment of DS.
Safety and tolerability were evaluated by analysis of adverse events, physical examinations, vital signs, ECOG performance status, and various laboratory assessments. For safety monitoring, subjects were scheduled for clinic visits every week for the initial three cycles of treatment, after which time visits could be reduced to every-other-week with investigator and sponsor agreement. Cardiac function was assessed with triplicate 12-lead electrocardiograms (ECG) at screening, C1-D1, C1-D2, C1-D15, D1 of every subsequent cycle, and at treatment end. […] AEs are presented by the Medical Dictionary for Regulatory Activities (MedDRA) v21.1.

## C[C@H]1C[C@@H](n2c(Nc3ccc(OC(F)(F)F)cc3)nc3cc(CCC(=O)O)ccc32)CC(C)(C)C1 [BAY1436032]
Total, n=27
  TEAE Dyspnoea Grade 3: 3 (11) n (%)
  TEAE Epistaxis Grade 1: 3 (11) n (%)
  TEAE Epistaxis Grade 2: 2 (7) n (%)
  TEAE Epistaxis Grade 3: 1 (4) n (%)
  TEAE Fall Grade 1: 4 (15) n (%)
  TEAE Fatigue Grade 1: 4 (15) n (%)
  TEAE Fatigue Grade 2: 4 (15) n (%)
  TEAE Fatigue Grade 3: 3 (11) n (%)
  TEAE Febrile neutropenia Grade 3: 7 (26) n (%)
  TEAE General physical health deterioration Grade 3: 2 (7) n (%)
  TEAE General physical health deterioration Grade 5: 1 (4) n (%)
  TEAE Gingivitis Grade 1: 3 (11) n (%)
  TEAE Haematuria Grade 1: 2 (7) n (%)
  TEAE Haematuria Grade 2: 1 (4) n (%)
  TEAE Haematuria Grade 3: 1 (4) n (%)
  TEAE Headache Grade 1: 1 (4) n (%)
  TEAE Headache Grade 2: 2 (7) n (%)
  TEAE Headache Grade 3: 1 (4) n (%)
  TEAE Hyperkalaemia Grade 1: 2 (7) n (%)
  TEAE Hyperkalaemia Grade 4: 1 (4) n (%)
  TEAE Hypertension Grade 2: 2 (7) n (%)
  TEAE Hypertension Grade 3: 1 (4) n (%)
  TEAE Hyperuricaemia Grade 1: 4 (15) n (%)
  TEAE Hyperuricaemia Grade 3: 1 (4) n (%)
  TEAE Hypokalaemia Grade 1: 3 (11) n (%)
  TEAE Hypokalaemia Grade 2: 1 (4) n (%)
  TEAE Hypokalaemia Grade 3: 2 (7) n (%)
  TEAE Hyponatraemia Grade 1: 2 (7) n (%)
  TEAE Hyponatraemia Grade 3: 1 (4) n (%)
  TEAE Hypophosphataemia Grade 1: 1 (4) n (%)
  TEAE Hypophosphataemia Grade 2: 2 (7) n (%)
  TEAE Leukocytosis Grade 2: 2 (7) n (%)
  TEAE Leukocytosis Grade 3: 2 (7) n (%)
  TEAE Lung infection Grade 3: 3 (11) n (%)
  TEAE Lung infection Grade 5: 1 (4) n (%)
  TEAE Nausea Grade 1: 5 (19) n (%)
  TEAE Nausea Grade 2: 2 (7) n (%)
  TEAE Nausea Grade 3: 2 (7) n (%)
  TEAE Oedema peripheral Grade 1: 6 (22) n (%)
  TEAE Oedema peripheral Grade 3: 2 (7) n (%)
  TEAE Pain in extremity Grade 1: 2 (7) n (%)
  TEAE Pain in extremity Grade 2: 1 (4) n (%)
  TEAE Pneumonia Grade 1: 1 (4) n (%)
  TEAE Pneumonia Grade 2: 2 (7) n (%)
  TEAE Pneumonia Grade 3: 3 (11) n (%)
  TEAE Pneumonia fungal Grade 2: 1 (4) n (%)
  TEAE Pneumonia fungal Grade 3: 1 (4) n (%)
  TEAE Pneumonia fungal Grade 4: 1 (4) n (%)
  TEAE Productive cough Grade 1: 2 (7) n (%)
  TEAE Productive cough Grade 2: 1 (4) n (%)
  TEAE Pyrexia Grade 1: 4 (15) n (%)
  TEAE Pyrexia Grade 2: 1 (4) n (%)
  TEAE Pyrexia Grade 3: 3 (11) n (%)
  TEAE Rash Grade 1: 1 (4) n (%)
  TEAE Rash Grade 2: 3 (11) n (%)
  TEAE Sepsis Grade 4: 3 (11) n (%)
  TEAE Sepsis Grade 5: 2 (7) n (%)
  TEAE Sinus tachycardia Grade 1: 3 (11) n (%)
  TEAE Thrombocytopenia Grade 4: 3 (11) n (%)
  TEAE Vomiting Grade 1: 7 (26) n (%)
  TEAE Weight decreased Grade 1: 3 (11) n (%)
  TEAE Weight decreased Grade 2: 3 (11) n (%)
  TEAE Weight decreased Grade 3: 1 (4) n (%)
Count of 27 treated
  Subjects with DS or symptoms associated with DS: Five of 27
Grade 4 ileus, subject 21, cohort 4
  Dose-limiting toxicities: single DLT
In vivo
  Clinically significant ECG changes such as QTc prolongation related to treatment: no clinically significant ECG
  Deaths attributed to study drug: none
  Episodes of ≥grade 3 QT prolongation: no episodes
